The subject of the test is HepG2 + U0126, LDLR mRNA qRT-PCR, 6 h. Put plainly: LDLR mRNA induction under MEK blockade, late-stage follow-up, mechanism study for Trib1 inducer project, cell-based, HepG2, U0126, RT-PCR (AID 1053163). The note with it: hits give high values.

Structures are written as SMILES.

As to `CN1C(=O)c2cc(NC(=O)c3ccc(C(F)(F)F)cc3)ccc2OC[C@@H]2O[C@@H](CC(=O)NC3Cc4ccccc4C3)CC[C@@H]21`, the LDLR mRNA fold induction was 10.
Under `CN1C(=O)c2cc(NC(=O)c3ccc(C(F)(F)F)cc3)ccc2OC[C@@H]2O[C@H](CC(=O)NC3Cc4ccccc4C3)CC[C@@H]21` stands 2.5.

Values taken from PubChem BioAssay AID1053163 (Broad Institute, 2014).
